The target of one data set is 5-HT2B (h) (Homo sapiens, UniProt P41595). To be noted: read-out: Ki Ref; reference compound.
A further data set concerns HEK-FAP tumors. The experiment in a line: Efficacy study HEK-FAP.
The next data set concerns Sarc4809 PDX tumors. The experiment in a line: Efficacy study sarcoma Sarc4809 PDX model.
The next data set deals with KV channel. To be noted: read-out: Ki Ref; reference compound.
In data set [1] the target is T1, FAP (Homo sapiens, UniProt Q12884). Briefly: biochemical.
The target in data set [2] is T1, FAP. The experiment in a line: biochemical. The source holds these as a separate data set.
Data set [3] deals with FAP-expressing human WI-38 fibroblasts (Homo sapiens, UniProt Q12884). Briefly: cell-based.
In another data set the target is T2, Renin (Homo sapiens, UniProt P00797).
T2 sequence (P00797 67-406): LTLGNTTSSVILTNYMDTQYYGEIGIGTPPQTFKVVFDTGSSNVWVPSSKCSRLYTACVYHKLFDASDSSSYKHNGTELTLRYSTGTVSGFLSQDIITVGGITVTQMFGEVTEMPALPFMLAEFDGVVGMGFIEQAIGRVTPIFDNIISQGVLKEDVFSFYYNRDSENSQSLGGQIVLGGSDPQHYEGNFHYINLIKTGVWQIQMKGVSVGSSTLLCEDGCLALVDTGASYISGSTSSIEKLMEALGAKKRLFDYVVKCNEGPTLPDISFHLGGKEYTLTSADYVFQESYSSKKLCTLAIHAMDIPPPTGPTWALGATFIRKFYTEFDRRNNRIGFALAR
Briefly: biochemical. To be noted: read-out: Percentage inhibition (%), Reference.

The target of the next data set is T3, alpha 1A (h) (Homo sapiens, UniProt P35348).
T3 sequence (P35348 1-466): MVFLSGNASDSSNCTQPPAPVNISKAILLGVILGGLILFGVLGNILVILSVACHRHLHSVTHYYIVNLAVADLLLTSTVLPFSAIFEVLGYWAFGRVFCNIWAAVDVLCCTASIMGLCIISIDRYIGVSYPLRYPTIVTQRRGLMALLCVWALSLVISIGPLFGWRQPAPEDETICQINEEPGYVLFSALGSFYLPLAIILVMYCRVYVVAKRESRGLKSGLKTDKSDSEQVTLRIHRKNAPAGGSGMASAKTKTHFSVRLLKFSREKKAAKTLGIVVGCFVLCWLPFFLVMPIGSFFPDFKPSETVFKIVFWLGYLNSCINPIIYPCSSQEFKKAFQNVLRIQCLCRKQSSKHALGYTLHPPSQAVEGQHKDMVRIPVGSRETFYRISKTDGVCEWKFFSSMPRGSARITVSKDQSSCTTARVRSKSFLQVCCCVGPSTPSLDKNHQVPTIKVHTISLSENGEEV
The note with it: read-out: Ki Ref; reference compound.

The target in a further data set is T4, Caspase-3 (Homo sapiens, UniProt P42574).
T4 sequence (P42574 29-175 limits assumed): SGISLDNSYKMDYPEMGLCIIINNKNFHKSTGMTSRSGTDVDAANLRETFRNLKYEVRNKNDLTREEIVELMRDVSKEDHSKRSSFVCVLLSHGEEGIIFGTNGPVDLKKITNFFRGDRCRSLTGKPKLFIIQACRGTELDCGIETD
T4 sequence (P42574 176-277 limits assumed): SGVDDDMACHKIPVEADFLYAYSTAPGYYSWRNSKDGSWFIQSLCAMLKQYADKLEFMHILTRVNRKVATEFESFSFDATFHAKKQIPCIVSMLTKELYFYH
To be noted: 100 nM.

For the next data set, the target named is T5, Caspase-7 (Homo sapiens, UniProt P55210).
T5 sequence (P55210 24-198 limits assumed): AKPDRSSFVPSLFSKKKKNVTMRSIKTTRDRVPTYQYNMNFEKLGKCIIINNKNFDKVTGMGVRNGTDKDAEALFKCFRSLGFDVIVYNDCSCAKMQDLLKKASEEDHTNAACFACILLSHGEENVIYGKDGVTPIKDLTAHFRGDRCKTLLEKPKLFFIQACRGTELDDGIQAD
T5 sequence (P55210 207-303 limits assumed): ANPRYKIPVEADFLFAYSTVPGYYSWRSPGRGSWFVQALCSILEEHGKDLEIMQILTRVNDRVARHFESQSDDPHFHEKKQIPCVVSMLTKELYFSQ
The note with it: 1 μM.

A further data set has as its target NMDA. The note with it: read-out: Ki Ref; reference compound.
Another data set deals with Cathepsin V (Homo sapiens, UniProt O60911). To be noted: 100 nM.
A further data set concerns the target Cathepsin S (Homo sapiens, UniProt P25774). To be noted: 100 nM.
The next data set has as its target Cathepsin L (Homo sapiens, UniProt P07711). The note with it: 1 μM.
For a further data set, the target named is Cathepsin B (Homo sapiens, UniProt P07858). The note with it: 100 nM.
Data set [4] is described as follows: in vitro. To be noted: human, plasma.
The nature of data set [5]: in vitro. The note with it: rat, plasma.
The nature of data set [6]: in vitro. To be noted: mouse, plasma.
The target in the next data set is T6, Cathepsin F (Homo sapiens, UniProt Q9UBX1).
T6 sequence (Q9UBX1 271-484): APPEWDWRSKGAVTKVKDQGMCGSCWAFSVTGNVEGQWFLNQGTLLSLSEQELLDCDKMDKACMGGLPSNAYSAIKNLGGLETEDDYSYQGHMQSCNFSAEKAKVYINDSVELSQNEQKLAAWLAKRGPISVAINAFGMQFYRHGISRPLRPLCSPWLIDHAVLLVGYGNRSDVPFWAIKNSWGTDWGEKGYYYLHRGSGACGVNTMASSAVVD
The note with it: 1 μM.

The next data set addresses Activated Protein C (Homo sapiens, UniProt P04070). The experiment in a line: biochemical. The note with it: read-out: Percentage inhibition (%), Reference.
Where [7] appears, read: throughout the study, all groups.

Numbered stars: 1 amine (or outer) side, 2 acyl side, 3 side chain; on linkers, the order of the positions; unused ones are H or OH. Bridge positions count the residues as written; N and C are the ends. Peptide text beside a SMILES is read from it. * marks the point of attachment. X5 = O=C1CN2CCN3CCN(CC(=O)N4CCN(Cc5cc(C[*:1])cc(C[*:2])c5)CC4)CCN(CC2)CC(=O)[O][Eu]([O]1)[O]C(=O)C3; Hexanoyl = CCCCCC(=O)*

On to `COc1cc(CC(C)N)c(OC)cc1I` (racemic) [(±)DOI], for which the Ki (in general, a dissociation constant, usually derived from enzyme kinetics or from competition with a known ligand) on 5-HT2B (h) was found to be 4.2 nM.

On to `CCCCCC(=O)N[C@H]1CSCc2cc(CSCCNC(=O)CN3CCN4CCN5CCN(CC3)CC(=O)[O][Lu]([O]C(=O)C4)[O]C(=O)C5)cc(c2)CSC[C@@H](C(=O)O)NC(=O)[C@H](Cc2ccccc2)NC(=O)[C@H](CCC(N)=O)NC(=O)[C@H]([C@@H](C)O)NC(=O)[C@@H]2CCCN2C(=O)[C@@H]2CCCN2C1=O` [^natLu-3BP-3554], for which the “mean tumor volume (MTV)” value in the data set on HEK-FAP tumors (cold compound, single i.v. injection Day 0, day 14) was 1392±420 mm^3. This compound came in with an MTV in the data set with Sarc4809 PDX tumors (cold compound (control group), day 31) of 1225±775 mm^3.

As for alpha-dendrotoxin [reference compound], the Ki at KV channel is 0.097 nM.

As to `CCCCCC(=O)N[C@H]1CSCc2cc(CSCCNC(=O)CN3CCN4CCN5CCN(CC3)CC(=O)[O][Ga]([O]C(=O)C4)[O]C(=O)C5)cc(c2)CSC[C@@H](C(=O)O)NC(=O)[C@H](Cc2ccccc2)NC(=O)[C@H](CCC(N)=O)NC(=O)[C@H]([C@@H](C)O)NC(=O)[C@@H]2CCCN2C(=O)[C@@H]2CCCN2C1=O` [Compound 3BP-3949, Hex-[Cys(tMeBn(GaDOTA-AET))-Pro-Pro-Thr-Gln-Phe-Cys]-OH], the Kd (in general, the concentration at which binding is half-saturated) at FAP [1] was < 10 nM. In addition, the IC50 (against FAP [2]; in data set [3]) was < 10 nM in each case.

As to `COCCCOc1cc(C[C@@H](C[C@H](N)[C@@H](O)C[C@H](C(=O)NCC(C)(C)C(N)=O)C(C)C)C(C)C)ccc1OC` [Aliskiren, reference compound], the inhibition (commonly the drop in the measured response relative to a control, in per cent) at 0.03 µM at Renin came to 99%.

On to `COc1cccc(OC)c1OCCNCC1COc2ccccc2O1` (stereo not shown) [WB 4101], for which the inhibition constant (Ki) at alpha 1A (h) amounted to 0.24 nM.

In the case of `COC[C@@H]1CCCN1S(=O)(=O)c1ccc2c(c1)C(=O)C(=O)N2` [Caspase 3/7 Inhibitor I], the “Percentage inhibition (%), Reference” value was determined as 89% on Caspase-3 and 92% on Caspase-7.

For the compound `CCCCCC(=O)N[C@H]1CSCc2cc(CSCCNC(=O)CN3CCN4CCN(CC(=O)O)CCN(CC3)CC(=O)[O][Cu][O]C(=O)C4)cc(c2)CSC[C@@H](C(=O)O)NC(=O)[C@H](Cc2ccccc2)NC(=O)[C@H](CCC(N)=O)NC(=O)[C@H]([C@@H](C)O)NC(=O)[C@@H]2CCCN2C(=O)[C@@H]2CCCN2C1=O` [Compound 3BP-4293, Hex-[Cys-(tMeBn(CuDOTA-AET))-Pro-Pro-Thr-Gln-Phe-Cys]-OH], the IC50 (against FAP [2]; in [3]) was < 10 nM each time.

Regarding `O=C(O)[C@@H]1C[C@H](CP(=O)(O)O)CCN1` [CGS 19755, reference compound], the Ki on NMDA is 140 nM.

For `CCCCCC(=O)N[C@H]1CSCc2cc(cc(CN3CCN(C(=O)CN4CCN5CCN6CCN(CC4)CC(=O)[O][Eu]([O]C(=O)C6)[O]C(=O)C5)CC3)c2)CSC[C@@H](C(=O)N[C@@H](CC(=O)O)C(N)=O)NC(=O)[C@H](Cc2ccccc2)NC(=O)[C@H](CCC(N)=O)NC(=O)[C@H]([C@@H](C)O)NC(=O)[C@@H]2CCCN2C(=O)[C@@H]2CCCN2C1=O` [Compound 3BP-3661, Hex-[Cys(tMeBn(EuDOTA-PP))-Pro-Pro-Thr-Gln-Phe-Cys]-Asp-NH2] (Hexanoyl-CPPTQFCD-NH2; linker 1-7 via X5), the IC50 (against FAP [2]; in data set [3]) was < 10 nM each time.

Consider `CCCCCC(=O)N[C@H]1CSCc2cc(CSCCNC(=O)CN3CCN4CCN(CC(=O)O)CCN(CC3)CC(=O)[O][Zn][O]C(=O)C4)cc(c2)CSC[C@@H](C(=O)O)NC(=O)[C@H](Cc2ccccc2)NC(=O)[C@H](CCC(N)=O)NC(=O)[C@H]([C@@H](C)O)NC(=O)[C@@H]2CCCN2C(=O)[C@@H]2CCCN2C1=O` [Compound 3BP-4343, Hex-[Cys-(tMeBn(ZnDOTA-AET))-Pro-Pro-Thr-Gln-Phe-Cys]-OH], for which the IC50 (on FAP [2]; in data set [3]) was < 10 nM each time.

With `CCCCCC(=O)N[C@H]1CSCc2cc(CSCCNC(=O)CN3CCN4CCN5CCN(CC3)CC(=O)[O][Eu]([O]C(=O)C4)[O]C(=O)C5)cc(c2)CSC[C@@H](C(=O)O)NC(=O)[C@H](Cc2ccccc2)NC(=O)[C@H](CCC(N)=O)NC(=O)[C@H]([C@@H](C)O)NC(=O)[C@@H]2CCCN2C(=O)[C@@H]2CCCN2C1=O` [Compound 3BP-3662, Hex-[Cys(tMeBn(EuDOTA-AET))-Pro-Pro-Thr-Gln-Phe-Cys]-OH], the IC50 (against FAP [2]; in [3]) was < 10 nM throughout.

`CCCCCC(=O)N[C@H]1CSCc2cc(CSCCNC(=O)CN3CCN(CC(=O)O)CCN(CC(=O)O)CCN(CC(=O)O)CC3)cc(c2)CSC[C@@H](C(=O)O)NC(=O)[C@H](Cc2ccccc2)NC(=O)[C@H](CCC(N)=O)NC(=O)[C@H]([C@@H](C)O)NC(=O)[C@@H]2CCCN2C(=O)[C@@H]2CCCN2C1=O` [^177Lu-3BP-3554, metal not drawn]: the body weight loss result in the data set with HEK-FAP tumors (setting [7]) is “No treatment-related body weight loss”. Besides, in the data set on Sarc4809 PDX tumors (setting [7]), the “body weight loss (BWL)” value is given as “No treatment-related body weight loss”.

For `CC(C)C[C@H](NC(=O)[C@H]1O[C@@H]1C(=O)O)C(=O)NCCCCN=C(N)N` [Compound E-64, E-64], the “Percentage inhibition (%), Reference” value at Cathepsin V is 83%; at Cathepsin S, 91%; at Cathepsin L it was 97%; at Cathepsin B it was 97%.

Turning to `CCCCCC(=O)N[C@H]1CSCc2cc(CSCCNC(=O)CN3CCN4CCN5CCN(CC3)CC(=O)[O][Lu]([O]C(=O)C4)[O]C(=O)C5)cc(c2)CSC[C@@H](C(=O)O)NC(=O)[C@H](Cc2ccccc2)NC(=O)[C@H](CCC(N)=O)NC(=O)[C@H]([C@@H](C)O)NC(=O)[C@@H]2CCCN2C(=O)[C@@H]2CCCN2C1=O` [Compound 3BP-3624, Hex-[Cys(tMeBn(LuDOTA-AET))-Pro-Pro-Thr-Gln-Phe-Cys]-OH], the Kd on FAP [1] is < 10 nM. Further, the IC50 (against FAP [2]; in data set [3]) was < 10 nM throughout. The amount remaining at 24 h, 9.8 µM in the data set “in vitro [4]”, in “in vitro [5]” and in the data set “in vitro [6]” was 100% each time.

In the case of Cystatin C, the “Percentage inhibition (%), Reference” value at Cathepsin F was 74%.

With `[H]/N=C(/N)c1ccc(NCc2nc3cc(C(=O)N(CCC(=O)O)c4ccccn4)ccc3n2C)cc1` [Dabigatran, reference compound], the inhibition at 20 µM on Activated Protein C was found to be 74%.

(Values after patent US12427210B2, “Compounds comprising a fibroblast activation protein ligand and use thereof” (priority 2019, dated 2025).)
